Measurements as given in publication PMC11124822, “Discovery and Anticancer Screening of Novel Oxindole-Based Derivative Bearing Pyridyl Group as Potent and Selective Dual FLT3/CDK2 Kinase Inhibitor” (Pharmaceuticals, 2024).

Experiments:
Assay in all cases: NCI-60 antiproliferative screen (SRB)
CCRF-CEM = assay type: cell-based, human; conditions: Homo sapiens; 10 µM single dose, 48 h; CCRF-CEM (Leukemia); read-out: Growth inhibition (%)
HL-60(TB) = assay type: cell-based, human; conditions: Homo sapiens; 10 µM single dose, 48 h; HL-60(TB) (Leukemia); read-out: Growth inhibition (%)
MOLT-4 = assay type: cell-based; conditions: Homo sapiens; 10 µM single dose, 48 h; MOLT-4 (Leukemia); read-out: Growth inhibition (%)
RPMI-8226 = assay type: cell-based, human; conditions: Homo sapiens; 10 µM single dose, 48 h; RPMI-8226 (Leukemia); read-out: Growth inhibition (%)
A549/ATCC = assay type: cell-based, human; conditions: Homo sapiens; 10 µM single dose, 48 h; A549/ATCC (NSCLC); read-out: Growth inhibition (%)
EKVX = assay type: cell-based, human; conditions: Homo sapiens; 10 µM single dose, 48 h; EKVX (NSCLC); read-out: Growth inhibition (%)
NCI-H226 = assay type: cell-based, human; conditions: Homo sapiens; 10 µM single dose, 48 h; NCI-H226 (NSCLC); read-out: Growth inhibition (%)
NCI-H460 = assay type: cell-based, human; conditions: Homo sapiens; 10 µM single dose, 48 h; NCI-H460 (NSCLC); read-out: Growth inhibition (%)
NCI-H522 = assay type: cell-based, human; conditions: Homo sapiens; 10 µM single dose, 48 h; NCI-H522 (NSCLC); read-out: Growth inhibition (%)
HCT-15 = assay type: cell-based, human; conditions: Homo sapiens; 10 µM single dose, 48 h; HCT-15 (Colon); read-out: Growth inhibition (%)
KM12 = assay type: cell-based, human; conditions: Homo sapiens; 10 µM single dose, 48 h; KM12 (Colon); read-out: Growth inhibition (%)
SF-268 = assay type: cell-based, human; conditions: Homo sapiens; 10 µM single dose, 48 h; SF-268 (CNS); read-out: Growth inhibition (%)
SNB-19 = assay type: cell-based, human; conditions: Homo sapiens; 10 µM single dose, 48 h; SNB-19 (CNS); read-out: Growth inhibition (%)
LOX IMVI = assay type: cell-based, human; conditions: Homo sapiens; 10 µM single dose, 48 h; LOX IMVI (Melanoma); read-out: Growth inhibition (%)
MALME-3M = assay type: cell-based, human; conditions: Homo sapiens; 10 µM single dose, 48 h; MALME-3M (Melanoma); read-out: Growth inhibition (%)
UACC-257 = assay type: cell-based, human; conditions: Homo sapiens; 10 µM single dose, 48 h; UACC-257 (Melanoma); read-out: Growth inhibition (%)
OVCAR-5 = assay type: cell-based, human; conditions: Homo sapiens; 10 µM single dose, 48 h; OVCAR-5 (Ovarian); read-out: Growth inhibition (%)
OVCAR-8 = assay type: cell-based, human; conditions: Homo sapiens; 10 µM single dose, 48 h; OVCAR-8 (Ovarian); read-out: Growth inhibition (%)
SK-OV-3 = assay type: cell-based, human; conditions: Homo sapiens; 10 µM single dose, 48 h; SK-OV-3 (Ovarian); read-out: Growth inhibition (%)
A498 = assay type: cell-based, human; conditions: Homo sapiens; 10 µM single dose, 48 h; A498 (Renal); read-out: Growth inhibition (%)
ACHN = assay type: cell-based, human; conditions: Homo sapiens; 10 µM single dose, 48 h; ACHN (Renal); read-out: Growth inhibition (%)
CAKI-1 = assay type: cell-based, human; conditions: Homo sapiens; 10 µM single dose, 48 h; CAKI-1 (Renal); read-out: Growth inhibition (%)
UO-31 = assay type: cell-based, human; conditions: Homo sapiens; 10 µM single dose, 48 h; UO-31 (Renal); read-out: Growth inhibition (%)
DU-145 = assay type: cell-based, human; conditions: Homo sapiens; 10 µM single dose, 48 h; DU-145 (Prostate); read-out: Growth inhibition (%)
MCF7 = assay type: cell-based, human; conditions: Homo sapiens; 10 µM single dose, 48 h; MCF7 (Breast); read-out: Growth inhibition (%)
BT-549 = assay type: cell-based, human; conditions: Homo sapiens; 10 µM single dose, 48 h; BT-549 (Breast); read-out: Growth inhibition (%)
MDA-MB-468 = assay type: cell-based, human; conditions: Homo sapiens; 10 µM single dose, 48 h; MDA-MB-468 (Breast); read-out: Growth inhibition (%)
SR = conditions: Homo sapiens, 48 h, read-out: Growth inhibition (%)
Description: (§1) Anticancer activity was tested against 60 cancer cell lines (NCI-60) after 48h treatments with a single dosage of 10 μM of compounds by using sulforhodamine B assay [39] on the traditional 96-well platform. […] The human cancer cell lines of the NCI-60 panel are grown in RPMI 1640 medium supplemented with 5% FBS (fetal bovine serum) and 2 mM L-glutamine. […] For further analysis of promising compounds, five dose screens were performed against the NCI-60 panel. Drug treatments are performed in 5 doses using 10-fold or ½ log dose dilutions.

OVCAR-4 = conditions: Homo sapiens, OVCAR-4, 48 h, read-out: Growth inhibition (%)
Description: as §1

OVCAR-3 = assay type: cell-based, human; conditions: Homo sapiens; 10 µM single dose, 48 h; OVCAR-3 (Ovarian); read-out: Growth inhibition (%)

Row | Structure (SMILES) | inhibition at 10 µM (CCRF-CEM) [%] | inhibition at 10 µM (HL-60(TB)) [%] | inhibition at 10 µM (MOLT-4) [%] | inhibition at 10 µM (RPMI-8226) [%] | inhibition at 10 µM (A549/ATCC) [%] | inhibition at 10 µM (EKVX) [%] | inhibition at 10 µM (NCI-H226) [%] | inhibition at 10 µM (NCI-H460) [%] | inhibition at 10 µM (NCI-H522) [%] | inhibition at 10 µM (HCT-15) [%] | inhibition at 10 µM (KM12) [%] | inhibition at 10 µM (SF-268) [%] | inhibition at 10 µM (SNB-19) [%] | inhibition at 10 µM (LOX IMVI) [%] | inhibition at 10 µM (MALME-3M) [%] | inhibition at 10 µM (UACC-257) [%] | inhibition at 10 µM (OVCAR-5) [%] | inhibition at 10 µM (OVCAR-8) [%] | inhibition at 10 µM (SK-OV-3) [%] | inhibition at 10 µM (ACHN) [%] | also measured
1 | O=C1Nc2ccccc2C1=Cc1ccc(OCc2ccccc2)cc1 (mixture of isomers) [Compound 5a, (E/Z)-3-[4-(Benzyloxy)benzylidene] indolin-2-one] | 0.52 | 11.5 | 2.73 | 1.13 | -3.26 | 0.69 | 4.45 | -8.64 | 2.18 | 0.04 | -3.15 | -1.74 | 2.17 | -7.76 | -7.59 | -9.45 | -2.24 | 2.34 | -5.78 | -4.27 | inhibition at 10 µM (A498): 7.9%; inhibition at 10 µM (CAKI-1): 2%; inhibition at 10 µM (UO-31): 14.9%; inhibition at 10 µM (DU-145): -4.38%; inhibition at 10 µM (MCF7): 15.8%; inhibition at 10 µM (BT-549): -5.74%; inhibition at 10 µM (MDA-MB-468): 0.75%; inhibition at 10 µM (SR): 14.6%; inhibition at 10 µM (OVCAR-4): -7.99%
2 | O=C1Nc2ccc(F)cc2C1=Cc1ccc(OCc2ccccc2)cc1 (mixture of isomers) [Compound 5b, (E/Z)-3-[4-(Benzyloxy)benzylidene]-5-fluoroindolin-2-one] | -10.8 | 7.92 | -0.05 | 2.59 | 3.9 | 0.65 | 9.53 | -0.94 | 5.91 | 3.51 | 2.42 | 5.43 | 1.26 | -6.24 | 7.33 | 2.53 | -0.99 | -0.84 | 0.16 | -7.3 | inhibition at 10 µM (CAKI-1): 8.23%; inhibition at 10 µM (UO-31): 2.55%; inhibition at 10 µM (DU-145): 0.4%; inhibition at 10 µM (MCF7): 7.57%; inhibition at 10 µM (BT-549): -6.03%; inhibition at 10 µM (MDA-MB-468): 1.56%; inhibition at 10 µM (SR): -0.14%; inhibition at 10 µM (OVCAR-4): 0.82%
3 | O=C1Nc2ccc(F)cc2C1=Cc1ccc(OCc2ccncc2)cc1 (mixture of isomers) [Compound 5n, (E/Z)-5-Fluoro-3-[4-(pyridin-4-ylmethoxy)benzylidene] indolin-2-one] | 40.6 | 57.8 | 76.7 | 64.5 | 29.8 | 52.2 | 44.5 | 44.4 | 82 | 78.8 | 69.8 | 38.8 | 60.5 | 67.3 | 26.8 | 23.4 | -27.6 | 56.2 | 13.7 | 70.3 | inhibition at 10 µM (OVCAR-3): 39.2%; inhibition at 10 µM (A498): 12.9%; inhibition at 10 µM (CAKI-1): 62.3%; inhibition at 10 µM (UO-31): 54.8%; inhibition at 10 µM (DU-145): 38.4%; inhibition at 10 µM (MCF7): 91.8%; inhibition at 10 µM (MDA-MB-468): 61.8%; inhibition at 10 µM (SR): 85.4%; inhibition at 10 µM (OVCAR-4): 43.4%
4 | O=C1Nc2ccc(Cl)cc2C1=Cc1ccc(OCc2ccncc2)cc1 (mixture of isomers) [Compound 5o, (E/Z)-5-Chloro-3-[4-(pyridin-4-ylmethoxy)benzylidene] indolin-2-one] | 53.9 | 66.5 | 81.2 | 70.5 | 39.9 | 37.6 | 38.3 | 57.8 | 86 | 79.1 | 60.6 | 55.7 | 73.8 | 58.7 | 43 | 23.7 | -14.4 | 61.5 | 11.4 | 70.2 | inhibition at 10 µM (OVCAR-3): 67.4%; inhibition at 10 µM (A498): 1.01%; inhibition at 10 µM (CAKI-1): 38.7%; inhibition at 10 µM (UO-31): 51.1%; inhibition at 10 µM (DU-145): 49.3%; inhibition at 10 µM (MCF7): 92.8%; inhibition at 10 µM (MDA-MB-468): 44.9%; inhibition at 10 µM (SR): 88.9%; inhibition at 10 µM (OVCAR-4): 47.3%
5 | O=C1Nc2cc(Cl)ccc2C1=Cc1ccc(OCc2ccncc2)cc1 (mixture of isomers) [Compound 5p, (E/Z)-6-Chloro-3-[4-(pyridin-4-ylmethoxy)benzylidene]indolin-2-one] | 34.4 | 52.4 | 79 | 74.9 | 27.9 | 45.1 | 49.5 | 36.8 | 45.2 | 76.9 | 47.8 | 16.7 | 28.7 | 65.2 | 12.5 | 17.2 | -29.4 | 61.3 | 15.5 | 34 | inhibition at 10 µM (OVCAR-3): 53%; inhibition at 10 µM (A498): -1.39%; inhibition at 10 µM (CAKI-1): 52.8%; inhibition at 10 µM (UO-31): 49%; inhibition at 10 µM (DU-145): 29.4%; inhibition at 10 µM (MCF7): 71.6%; inhibition at 10 µM (MDA-MB-468): 65.6%; inhibition at 10 µM (SR): 72.6%; inhibition at 10 µM (OVCAR-4): 31.8%
